Consider 14 compounds from US12049450B2, “Pyridyloxy-carboxylate derivative and preparation method therefor, herbicidal composition, and use” (Qingdao Kingagroot Chemical Compound Co., Ltd., priority 2018, dated 2024).

Holding throughout (format): in vivo
Data set [1] deals with Abutilon theophrasti. In words: Post-emergence test experiment (greenhouse pot, spray at 2-3 leaf stage). To be noted: 1000 g/ha; post-emergence spray at 2-3 leaf stage; assessed after 3 weeks; fresh weight inhibition rate. Summed up: (§1)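 Activity graded levels 0-5 by fresh-weight inhibition (level 5 above 85%, level 0 below 5%), assessed 3 weeks after treatment. Plants grown in greenhouse pots were sprayed post-emergence at 2-3 leaves using acetone/tween-80 solutions with methyl oleate synergist (1.5 L/ha).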

Data set [2] deals with Digitaria sanguinalis. Described as above. As to conditions: 1000 g/ha; post-emergence spray at 2-3 leaf stage; assessed after 3 weeks; fresh weight inhibition rate. Summed up:
as §1

Data set [3] deals with Echinochloa crusgalli. The description is as above. As to conditions: 1000 g/ha; post-emergence spray at 2-3 leaf stage; assessed after 3 weeks; fresh weight inhibition rate. Summed up: as §1
For data set [4], the system named is Galium spurium. Described as above. To be noted: 1000 g/ha; post-emergence spray at 2-3 leaf stage; assessed after 3 weeks; fresh weight inhibition rate. Summed up:
as §1

Data set [5] deals with Monochoria vaginalis. Described as above. To be noted: 1000 g/ha; post-emergence spray at 2-3 leaf stage; assessed after 3 weeks; fresh weight inhibition rate. In short, it runs like this: as §1
Data set [6] relates to Soybean. Kind of data set: Spray drift test, application by unmanned gyroplane, soybean field at 10 meters. As to conditions: 600 g/ha, gyroplane at 1 m, gentle breeze. The method, then: Broadleaf crops are very sensitive to hormonal herbicides, therefore crop injuries are more likely to occur in case of spray drifting. Tests were conducted in gentle breeze for the compounds of the present invention. The formulation of the compounds of the present invention was applied by DJI unmanned gyroplane with application height of 1 m and water volume of 20 kg/ha. The use rate was 600 g/ha. The active ingredient was dissolved by acetone and diluted to aqueous solution of Tween 80. There's a soybean field at 10 meters from the application area and the height of soybean plants were about 15 cm at the application time.

Consider `CC(Oc1nc(F)c(Cl)c(N)c1Cl)C(=O)OCc1cc(C(F)(F)F)ccc1F` (stereo not shown) [Compound 82], for which the “Activity level (growth inhibition rate) Abutilon theophrasti” value in data set [1] is given as 5 (Level 5: the growth inhibition rate is greater than 85%). In data set [2], the “Activity level (growth inhibition rate) Digitaria sanguinalis” value is 5 (Level 5: the growth inhibition rate is greater than 85%). In addition, in data set [3], the “Activity level (growth inhibition rate) Echinochloa crusgalli” value was 5 (Level 5: the growth inhibition rate is greater than 85%). Besides, in data set [4], the “Activity level (growth inhibition rate) Galium spurium” value is 5 (Level 5: the growth inhibition rate is greater than 85%). For the same compound, the “Activity level (growth inhibition rate) Monochoria Vaginalis” value in data set [5] is on record as 5 (Level 5: the growth inhibition rate is greater than 85%). The “Soybean, injury level by spray drift” value in data set [6] was 0 (Level 0: the growth inhibition rate is less than 5%).

Take `N#CC(Oc1nc(F)c(Cl)c(N)c1Cl)C(=O)OCc1ccccc1` (stereo not shown) [Compound 43]: the “Activity level (growth inhibition rate) Abutilon theophrasti” value in data set [1] was 5 (Level 5: the growth inhibition rate is greater than 85%). Moreover, in data set [4], the “Activity level (growth inhibition rate) Galium spurium” value is 5 (Level 5: the growth inhibition rate is greater than 85%). In addition, the “Activity level (growth inhibition rate) Monochoria Vaginalis” value in data set [5] is listed as 5 (Level 5: the growth inhibition rate is greater than 85%). Further, in data set [6], the “Soybean, injury level by spray drift” value is reported as 0 (Level 0: the growth inhibition rate is less than 5%).

As for `CC(Oc1nc(F)c(Cl)c(NCc2ccco2)c1Cl)C(=O)OCc1ccccc1` (stereo not shown) [Compound 193], the “Activity level (growth inhibition rate) Abutilon theophrasti” value in data set [1] is recorded as 5 (Level 5: the growth inhibition rate is greater than 85%). For the same compound, the “Activity level (growth inhibition rate) Digitaria sanguinalis” value in data set [2] was 5 (Level 5: the growth inhibition rate is greater than 85%). For the same compound, the “Activity level (growth inhibition rate) Echinochloa crusgalli” value in data set [3] is 5 (Level 5: the growth inhibition rate is greater than 85%). The “Activity level (growth inhibition rate) Galium spurium” value in data set [4] is 5 (Level 5: the growth inhibition rate is greater than 85%). For the same compound, in data set [5], the “Activity level (growth inhibition rate) Monochoria Vaginalis” value is on record as 5 (Level 5: the growth inhibition rate is greater than 85%). The “Soybean, injury level by spray drift” value in data set [6] is listed as 0 (Level 0: the growth inhibition rate is less than 5%).

Turning to `CC(C)C(Oc1nc(F)c(Cl)c(N)c1Cl)C(=O)OCc1ccccc1` (stereo not shown) [Compound 27], the “Activity level (growth inhibition rate) Abutilon theophrasti” value in data set [1] is recorded as 5 (Level 5: the growth inhibition rate is greater than 85%). For the same compound, the “Activity level (growth inhibition rate) Galium spurium” value in data set [4] is 5 (Level 5: the growth inhibition rate is greater than 85%). The “Activity level (growth inhibition rate) Monochoria Vaginalis” value in data set [5] was 5 (Level 5: the growth inhibition rate is greater than 85%). For the same compound, in data set [6], the “Soybean, injury level by spray drift” value is 0 (Level 0: the growth inhibition rate is less than 5%).

For `Nc1c(Cl)c(F)nc(OC(C(=O)OCc2ccccc2)c2cccs2)c1Cl` (stereo not shown) [Compound 54], the “Activity level (growth inhibition rate) Abutilon theophrasti” value in data set [1] was 5 (Level 5: the growth inhibition rate is greater than 85%). The “Activity level (growth inhibition rate) Galium spurium” value in data set [4] is 5 (Level 5: the growth inhibition rate is greater than 85%). In addition, the “Activity level (growth inhibition rate) Monochoria Vaginalis” value in data set [5] is 5 (Level 5: the growth inhibition rate is greater than 85%). The “Soybean, injury level by spray drift” value in data set [6] is given as 0 (Level 0: the growth inhibition rate is less than 5%).

As for `Nc1c(Cl)c(F)nc(OC(C(=O)OCc2ccccc2)C(F)(F)F)c1Cl` (stereo not shown) [Compound 41], the “Activity level (growth inhibition rate) Abutilon theophrasti” value in data set [1] is 5 (Level 5: the growth inhibition rate is greater than 85%). Moreover, the “Activity level (growth inhibition rate) Galium spurium” value in data set [4] is 5 (Level 5: the growth inhibition rate is greater than 85%). Besides, the “Activity level (growth inhibition rate) Monochoria Vaginalis” value in data set [5] is recorded as 5 (Level 5: the growth inhibition rate is greater than 85%). Also, in data set [6], the “Soybean, injury level by spray drift” value is reported as 0 (Level 0: the growth inhibition rate is less than 5%).

Take `CN(C)CC(Oc1nc(F)c(Cl)c(N)c1Cl)C(=O)SCc1ccccc1` (stereo not shown) [Compound 46]: in data set [1], the “Activity level (growth inhibition rate) Abutilon theophrasti” value is given as 5 (Level 5: the growth inhibition rate is greater than 85%). The “Activity level (growth inhibition rate) Galium spurium” value in data set [4] is on record as 5 (Level 5: the growth inhibition rate is greater than 85%). The “Activity level (growth inhibition rate) Monochoria Vaginalis” value in data set [5] is on record as 5 (Level 5: the growth inhibition rate is greater than 85%). The “Soybean, injury level by spray drift” value in data set [6] is 0 (Level 0: the growth inhibition rate is less than 5%).

Consider `CC(Oc1nc(F)c(Cl)c(N)c1Cl)C(=O)OCc1c(F)ccc(F)c1F` (stereo not shown) [Compound 83], for which the “Activity level (growth inhibition rate) Abutilon theophrasti” value in data set [1] is listed as 5 (Level 5: the growth inhibition rate is greater than 85%). Besides, the “Activity level (growth inhibition rate) Digitaria sanguinalis” value in data set [2] was 5 (Level 5: the growth inhibition rate is greater than 85%). Moreover, the “Activity level (growth inhibition rate) Echinochloa crusgalli” value in data set [3] was 5 (Level 5: the growth inhibition rate is greater than 85%). In data set [4], the “Activity level (growth inhibition rate) Galium spurium” value is recorded as 5 (Level 5: the growth inhibition rate is greater than 85%). Further, in data set [5], the “Activity level (growth inhibition rate) Monochoria Vaginalis” value was 5 (Level 5: the growth inhibition rate is greater than 85%). Besides, the “Soybean, injury level by spray drift” value in data set [6] is reported as 0 (Level 0: the growth inhibition rate is less than 5%).

Regarding `CC(Oc1nc(F)c(F)c(N)c1F)C(=O)OCc1ccccc1` (stereo not shown) [Compound 1], the “Activity level (growth inhibition rate) Abutilon theophrasti” value in data set [1] is reported as 5 (Level 5: the growth inhibition rate is greater than 85%). The “Activity level (growth inhibition rate) Digitaria sanguinalis” value in data set [2] is 5 (Level 5: the growth inhibition rate is greater than 85%). In addition, the “Activity level (growth inhibition rate) Echinochloa crusgalli” value in data set [3] is given as 5 (Level 5: the growth inhibition rate is greater than 85%). In data set [4], the “Activity level (growth inhibition rate) Galium spurium” value is reported as 5 (Level 5: the growth inhibition rate is greater than 85%). Also, the “Activity level (growth inhibition rate) Monochoria Vaginalis” value in data set [5] is 5 (Level 5: the growth inhibition rate is greater than 85%). The “Soybean, injury level by spray drift” value in data set [6] was 0 (Level 0: the growth inhibition rate is less than 5%).

Regarding `COC(Oc1nc(F)c(Cl)c(N)c1Cl)C(=O)SCc1ccccc1` (stereo not shown) [Compound 50], the “Activity level (growth inhibition rate) Abutilon theophrasti” value in data set [1] is recorded as 5 (Level 5: the growth inhibition rate is greater than 85%). For the same compound, in data set [4], the “Activity level (growth inhibition rate) Galium spurium” value is recorded as 5 (Level 5: the growth inhibition rate is greater than 85%). In data set [5], the “Activity level (growth inhibition rate) Monochoria Vaginalis” value is 5 (Level 5: the growth inhibition rate is greater than 85%). The “Soybean, injury level by spray drift” value in data set [6] is 0 (Level 0: the growth inhibition rate is less than 5%).

As to `CC(Oc1ncc(Cl)c(N)c1Cl)C(=O)OCc1ccccc1` (stereo not shown) [Compound 3], the “Activity level (growth inhibition rate) Abutilon theophrasti” value in data set [1] is reported as 5 (Level 5: the growth inhibition rate is greater than 85%). Moreover, the “Activity level (growth inhibition rate) Digitaria sanguinalis” value in data set [2] is listed as 5 (Level 5: the growth inhibition rate is greater than 85%). In addition, the “Activity level (growth inhibition rate) Echinochloa crusgalli” value in data set [3] is given as 5 (Level 5: the growth inhibition rate is greater than 85%). In addition, the “Activity level (growth inhibition rate) Galium spurium” value in data set [4] is given as 5 (Level 5: the growth inhibition rate is greater than 85%). Moreover, in data set [5], the “Activity level (growth inhibition rate) Monochoria Vaginalis” value is recorded as 5 (Level 5: the growth inhibition rate is greater than 85%). Moreover, the “Soybean, injury level by spray drift” value in data set [6] is 0 (Level 0: the growth inhibition rate is less than 5%).

Consider `CC(Oc1nc(Cl)c(Cl)c(N)c1Cl)C(=O)OCc1ccccc1` (stereo not shown) [Compound 2], for which, in data set [1], the “Activity level (growth inhibition rate) Abutilon theophrasti” value is given as 5 (Level 5: the growth inhibition rate is greater than 85%). Further, the “Activity level (growth inhibition rate) Digitaria sanguinalis” value in data set [2] is reported as 5 (Level 5: the growth inhibition rate is greater than 85%). Moreover, the “Activity level (growth inhibition rate) Echinochloa crusgalli” value in data set [3] is listed as 5 (Level 5: the growth inhibition rate is greater than 85%). Further, in data set [4], the “Activity level (growth inhibition rate) Galium spurium” value is on record as 5 (Level 5: the growth inhibition rate is greater than 85%). Further, the “Activity level (growth inhibition rate) Monochoria Vaginalis” value in data set [5] is reported as 5 (Level 5: the growth inhibition rate is greater than 85%). The “Soybean, injury level by spray drift” value in data set [6] is on record as 0 (Level 0: the growth inhibition rate is less than 5%).

For the compound `CC(Oc1nc(F)c(Cl)c(N)c1Cl)C(=O)SCc1ccc(-c2ccccc2)cc1` (racemic) [Compound 113], in data set [1], the “Activity level (growth inhibition rate) Abutilon theophrasti” value is reported as 5 (Level 5: the growth inhibition rate is greater than 85%). Moreover, the “Activity level (growth inhibition rate) Digitaria sanguinalis” value in data set [2] is reported as 5 (Level 5: the growth inhibition rate is greater than 85%). The “Activity level (growth inhibition rate) Echinochloa crusgalli” value in data set [3] is reported as 5 (Level 5: the growth inhibition rate is greater than 85%). Moreover, the “Activity level (growth inhibition rate) Galium spurium” value in data set [4] is listed as 5 (Level 5: the growth inhibition rate is greater than 85%). Further, the “Activity level (growth inhibition rate) Monochoria Vaginalis” value in data set [5] is listed as 5 (Level 5: the growth inhibition rate is greater than 85%). In addition, the “Soybean, injury level by spray drift” value in data set [6] is on record as 0 (Level 0: the growth inhibition rate is less than 5%).

As for `Nc1c(Cl)c(F)nc(OC(Cc2ccccc2)C(=O)OCc2ccccc2)c1Cl` (stereo not shown) [Compound 53], in data set [1], the “Activity level (growth inhibition rate) Abutilon theophrasti” value was 5 (Level 5: the growth inhibition rate is greater than 85%). The “Activity level (growth inhibition rate) Galium spurium” value in data set [4] is listed as 5 (Level 5: the growth inhibition rate is greater than 85%). The “Activity level (growth inhibition rate) Monochoria Vaginalis” value in data set [5] is given as 5 (Level 5: the growth inhibition rate is greater than 85%). For the same compound, in data set [6], the “Soybean, injury level by spray drift” value is recorded as 0 (Level 0: the growth inhibition rate is less than 5%).
